Source: patent US11977071B2, “Method for screening for platelet production promoters” (Kyoto University, priority 2016, dated 2024)

Key:
[1] = test system: TUBB1 expression (VENUS reporter) in immortalized megakaryocyte cell line MKCL #12-23 cre2; test: Secondary screening: VENUS fluorescence intensity in reporter immortalized megakaryocyte cell line at four concentrations; assay type: cell-based, human; conditions: 10 μM, 3.3 μM, 1.1 μM and 0.4 μM compound, day 7
Description: Secondary screening consisted of seeding the immortalized megakaryocyte cell line obtained according to the method described above into a 96-well dish and culturing after adding 10 μM Y-27632, 50 ng/ml of TPO, 50 ng/ml of SCF and the primary candidate compounds at concentrations of 10 μM, 3.3 μM, 1.1 μM and 0.4 μM each. The cells were also cultured in differentiation medium containing 0.75 μM SR1, 10 μM Y-27632, 50 ng/ml of TPO and 50 ng/ml of SCF (positive control) or differentiation medium containing 0.1% DMSO, 10 μM Y-27632, 50 ng/ml of TPO and 50 ng/ml of SCF (negative control). On day 7 of culturing, the fluorescence intensity of VENUS in each compound group was measured with Array Scan VTI (Thermo Scientific), and the value of fluorescence intensity of each compound was corrected according to the fluorescence intensity of the positive control (assigned a value of 100%) and the fluorescence intensity of the negative control (assigned a value of 0%). […] The secondary candidate compounds consisted of 35 types of compounds, and included, for example, TCS-359 (CAS NO. 301305-73-7, Santa Cruz Biotechnology, Inc.) and C59 (CAS NO. 1243243-89-1).

[2] = test system: megakaryocyte cells (non-immortalized) derived from iPS cells (TkDA3-4); test: Platelet production of iPS cell (TkDA3-4)-derived megakaryocyte cells in absence of feeder cells, FACS; assay type: cell-based; conditions: 10 days, 1 μM C59, 3.3 μM TCS-359, 0.75 μM SR1
Description: After culturing iPS cells (TkDA3-4), the colonies were detached with a cell scraper and cultured in differentiation medium on 10T1/2 feeder cells following the addition of […] of VEGF in accordance with Takayama, N., et al., Blood, 111, pp. 5298-5306, 2008. Fourteen days later, the cells were recovered using a cell scraper and cultured for 10 days in the absence of feeder cells following the addition of 25 U/mL of heparin, 10 μM Y-27632, 100 ng/ml of TPO and 50 ng/ml of SCF, and further adding 0.1% DMSO, 0.75 μM SR1, 1 μM C59 (Albiochem) or 3.3 μM TCS-359 (Santa Cruz Biotechnology, Inc.). Culturing was also carried out in the same manner using feeder cells. The resulting cells were suspended and the supernatant was harvested followed by analyzing by FACS after staining with anti-CD41a antibody and anti-CD42b antibody (FIG. 10).

[3] = test system: immortalized megakaryocyte cell line MKCL #12-23 cre2; test: Platelet production by immortalized megakaryocyte cell line, FACS of supernatant (anti-CD41a, anti-CD42b); assay type: cell-based, human; conditions: 10 μM, 3.3 μM, 1.1 μM and 0.4 μM compound, day 7, 6-well dish
Description: Continuing, the effect of promoting platelet production was confirmed for 28 compounds from among the secondary candidate compounds excluding duplicate compounds and compounds that were unable to be used commercially. The above-mentioned immortalized megakaryocyte cell line was cultured in a 6-well dish in differentiation medium containing each of the compounds at concentrations of 10 μM, 3.3 μM, 1.1 μM and 0.4 μM, 10 μM Y-27632, 50 ng/ml of TPO and 50 ng/ml of SCF, differentiation medium containing 0.75 μM SR1, 10 μM Y-27632, 50 ng/ml of TPO and 50 ng/ml of SCF (positive control), or differentiation medium containing 0.1% DMSO, 10 μM Y-27632, 50 ng/ml of TPO and 50 ng/ml of SCF (negative control), followed by suspending the cells and harvesting the supernatant on day 7 of culturing and analyzing by FACS after staining with anti-CD41a antibody and anti-CD42b antibody. The relative number of platelets was calculated by correcting the number of platelets in the case of using each candidate compound with the number of platelets of the positive control (assigned a value of 100%) and the number of platelets of the negative control (assigned a value of 0%) (FIG. 9).

[4] = test system: immortalized megakaryocyte cell line MKCL #12-23 cre2; test: Time course of VENUS expression and platelet number with or without SR1 on 10T1/2R feeder cells, FACS; assay type: cell-based, human; conditions: 0.75 μM SR1 with 10 μM Y-27632, TPO, SCF; day 0 to day 7
Description: Continuing, the immortalized megakaryocyte cell line was cultured on 10T1/2R feeder cells in differentiation medium containing 50 ng/ml of TPO and 50 ng/ml of SCF or differentiation medium containing 0.75 μM SR1, 10 μM Y-27632, 50 ng/ml of TPO and 50 ng/ml of SCF, followed by suspending the cells and harvesting the supernatant on day 0, day 1, day 3, day 4, day 6 and day 7 of culturing and analyzing the cells by FACS after staining with anti-CD41a antibody and anti-CD42b antibody.

Structure (SMILES) | concentration dependency of VENUS fluorescence intensity [1] | ability to produce platelets compared with SR1 [2] | relative number of platelets (positive control 0.75 μM SR1 = 100%, negative control 0.1% DMSO = 0%) [3] | expression level of VENUS [4] | number of platelets produced [4]
Cc1cc(-c2ccc(CC(=O)Nc3ccc(-c4cccnc4)cc3)cc2)ccn1 [C59] | concentration dependency was observed | equal to or greater than that of SR1 | potent platelet inducer |  | 
CC(C)n1cnc2c(NCCc3ccc(O)cc3)nc(-c3csc4ccccc34)nc21 [SR1, StemRegenin 1] |  |  |  | confirmed to rise | confirmed to increase
COc1ccc(C(=O)Nc2sc3c(c2C(N)=O)CCCC3)cc1OC [TCS-359] | concentration dependency was observed | equal to or greater than that of SR1 |  |  | 
